Experimental findings from patent US9205064B2, “Methods for the diagnosis of oncological disorders using epimetabolic shifters, multidimensional intracellular molecules, or environmental influencers” (Berg LLC, priority 2009, dated 2015) are described below.

SMILES strings stand for the structures.

For one assay, the system named is ATP Citrate Lyase (ACL). The assay is described as follows: Western blot of ATP citrate lyase levels in normal and cancer cells. It is filed as cell-based, human. The protocol: The whole cell pellets were resuspended one at a time in 1 mL of C7 buffer and transferred to labeled 15 mL tubes. The samples were then sonicated in the cold room on ice using 6 sonic pulses with the setting at #14. The samples were spun for a short time to 2500 g after sonication and the samples transferred to 2 ml tubes. The pH was verified of each sample (pH should be 9.0) using the foam remaining in the […] sample tubes.
After transfer each of the blots was placed in between 2 Whatman Filter papers and dried for 15-20 minutes. After drying the blots were labeled with the date, the type of samples and either blot 1 or blot 2 using a HB pencil. The molecular weight markers were outlined with the pencil and with single lines for the blue and a doublet for the colored markers. The blots were activated with methanol for 5 seconds, washed with water for 5 minutes, and TBST for 15 minutes. The blots were blocked for 1 hour with 5% blocking reagent in TBS-T at room temperature and then washed 3 times with TBS-T (1×-15′; 2×5′ each). Blot 1 was probed with the primary antibody for IDH1 (Cell Signaling #3997) in TBST with 5% BSA (at 1:1000 dilutions) and blot 2 with the rabbit polyclonal antibody for ATP Citrate Lyase in 5% BSA (Cell Signaling #4332) at 1:1000 dilution by incubation overnight at 4 deg C. with shaking. After the overnight incubation with primary antibodies, the blots were washed 3 times with TBS-T (1×-15′; 2×5′ each) and probed with the secondary antibody (antirabbit; 1:10,000 dilution) for 1 h on the orbital tilting shaker at room temperature. After 1 h of incubation with secondary antibodies, the blots were washed 3 times with TBS-T (1×-15′; 2×5′ each) and then incubated with ECF reagent for 5 mins and then each blot scanned with 5100 Fuji Laser scanner at 25 uM resolution, 16 bit, green laser, at 400V and at 500 V.
The samples were processed and run on a 4-12% Bis-Tris Novex NuPAGE gel as described above. The gels were run, transferred and stained essentially as described above.
The Isocitrate dehydrogenase blot was stripped by incubating for 30 minutes with methanol, followed by two 10 minute washes with TBS-T, then 30 minutes of incubation with stripping buffer at 50 deg C., and followed by two washes with 100 ml or more of TBS-T for 30′ each. The blot was scanned in laser scanner to check for complete stripping. The blot was activated with methanol for 5 seconds, washed with water for 5 minutes, and TBST for 15 minutes. The blot was blocked for 1 hour with 5% blocking reagent in TBS-T at room temperature and then washed 3 times with TBS-T (1×-15′; 2×5′ each). This was then probed with the rabbit polyclonal antibody for ATP Citrate Lyase in 5% BSA (Cell Signaling #4332) at 1:1000 dilution overnight at 4 deg C. with shaking. After the overnight incubation with primary antibody for ATP Citrate Lyase, the membrane was washed 3 times with TBS-T (1×-15′; 2×5′ each) and probed with the secondary antibody (antirabbit; 1:10,000 dilution) for 1 h on the orbital tilting shaker at room temperature. After 1 h of incubation with secondary antibodies, the blot was washed 3 times with TBS-T (1×-15′; 2×5′ each) and then incubated with ECF reagent for 5 minutes and then each blot scanned with 5100 Fuji Laser scanner at 25 uM resolution, 16 bit, green laser, at 400V and at 500 V.
In this experiment (western blot experiment 3), and in all of the experiments described below in this Example (i.e., western blot experiments 4 through 9), the cells were additionally treated with either 5 mM glucose (“5G”) or 22 mM glucose (“22G”). The samples derived from the cells were processed and run on a 4-12% Bis-Tris Novex NuPAGE gel as described above. The gels were run, transferred and stained essentially as described above.
The levels of IDH1, ATP citrate lyase and actin levels were determined by probing the blots with primary antibodies for IDH1, ATP citrate lyase and actin, essentially as described above.
(In general: A western blot detects proteins with antibodies after separation by electrophoresis.)

Assay [1] relates to Pancreatic Cancer Cells (PaCa2). The assay is described as follows: Real-time PCR Apoptosis Array. It is filed as cell-based. Conditions: 100 uM Q10, various times. How it is done:
Experiments were carried out essentially as described above.

Assay [2] deals with MCF-7 breast cancer cells. The assay is described as follows: SeaHorse XF analyzer OCR and ECAR. The settings on record: absence and presence of stressors. Type of assay: cell-based. The source says: Environmental influencers (e.g., MIMs or Epi-shifters) may also be identified by changes in cellular energetics. One example of the measurement of cellular energetics are the real-time measures of the consumption of molecular oxygen and/or the change in pH of the media of a cell culture. For example, the ability of a potential epi-shifter to modulate the metabolic state of a cell may be analyzed using, for example, the XF24 Analyzer (Seahorse, Inc.). This technology allows for real time detection of oxygen and pH changes in a monolayer of cells in order to evaluate the bioenergetics of a cell microenvironment. The XF24 Analyzer measures and compares the rates of oxygen consumption (OCR), which is a measure of aerobic metabolism, and extracellular acidification (ECAR), which is a measure of glycolysis, both key indicators of cellular energetics.
(SeaHorse Biosciences Inc, North Billerica, Mass.).
In contrast, cancer cells (e.g., MCF-7, PaCa-2) are inherently primed to culture at higher levels of glucose compared to normal cells due to their glycolytic phenotype for maintenance in culture.

As to `COC1=C(OC)C(=O)C(C/C=C(\C)CC/C=C(\C)CC/C=C(\C)CC/C=C(\C)CC/C=C(\C)CC/C=C(\C)CC/C=C(\C)CC/C=C(\C)CC/C=C(\C)CCC=C(C)C)=C(C)C1=O` [Q10, Coenzyme Q10], the “ATP Citrate Lysase ~kd band Normalized Intensity (HASMC vs. HepG2)” value in the assay with ATP Citrate Lyase (ACL) (HASMC, 5g48-50) is 23341; with ATP Citrate Lyase (ACL) (HASMC, 5g48-100) it was 25544; in the assay with ATP Citrate Lyase (ACL) (HASMC, 22G48-50), 21439; in the assay on ATP Citrate Lyase (ACL) (HASMC, 22G48-100), 19491; in the assay with ATP Citrate Lyase (ACL) (HepG2, 5g48-50) it was 24106; in the assay with ATP Citrate Lyase (ACL) (HepG2, 5g48-100), 22463. Also, the “ATP Citrate Lysase ~kd band Normalized Intensity (HASMC vs. HepG2)” value amounted to 31235 with ATP Citrate Lyase (ACL) (HepG2, 22G48-50) and 50588 in the assay on ATP Citrate Lyase (ACL) (HepG2, 22G48-100). Further, the “ATP Citrate Lysase ~kd band Normalized Intensity (HASMC vs. PACA2)” value in the assay on ATP Citrate Lyase (ACL) (HASMC, 5g48-50) was found to be 12056; in the assay with ATP Citrate Lyase (ACL) (HASMC, 5g48-100) it was 15265; with ATP Citrate Lyase (ACL) (HASMC, 22G48-50) it was 15857; with ATP Citrate Lyase (ACL) (HASMC, 22G48-100), 13892; with ATP Citrate Lyase (ACL) (PACA2, 5g48-50), 8027; in the assay on ATP Citrate Lyase (ACL) (PACA2, 5g48-100) it was 4942. For the same compound, the “ATP Citrate Lysase ~kd band Normalized Intensity (HASMC vs. PACA2)” value amounted to 9537 in the assay on ATP Citrate Lyase (ACL) (PACA2, 22G48-50) and 14901 with ATP Citrate Lyase (ACL) (PACA2, 22G48-100). For the same compound, in assay [1], the “mRNA of ABL1, AKT1, Bcl2L1, BclAF1, CASP1, CASP2, CASP6, CIDEA, FADD, LTA, TNF, TNFSF10A and TNFSF10” value is listed as “modulated”. For the same compound, the OCR values result in assay [2] is given as “consistent reduction”.
